Values of other authors in US10301318B2, “Neuroactive compounds and methods of using the same” (THE GENERAL HOSPITAL CORPORATION, priority 2014, dated 2019).

Test system: mice
Conditions: literature

O=C(CCCN1CCC(O)(c2ccc(Cl)cc2)CC1)c1ccc(F)cc1 [haloperidol]
reversal of PCP-induced hyperlocomotion: can be reversed
